We go through three molecules from ChEMBL document CHEMBL1287762, “Synthesis and biological evaluation of 3-[4-(amino/methylsulfonyl)phenyl]methylene-indolin-2-one derivatives as novel COX-1/2 and 5-LOX inhibitors” (Bioorg Med Chem Lett, 2010).

Structures are written as SMILES.

One data set is filed under the species Oryctolagus cuniculus. Briefly: Selectivity ratio, IC50 for COX-1in rabbit peripheral venous blood to IC50 for COX-2 in rabbit peripheral venous blood. Format: tissue-based.
Data set [1] addresses T1, Prostaglandin G/H synthase 1 (Oryctolagus cuniculus, UniProt O97554).
T1 sequence (O97554 whole entry): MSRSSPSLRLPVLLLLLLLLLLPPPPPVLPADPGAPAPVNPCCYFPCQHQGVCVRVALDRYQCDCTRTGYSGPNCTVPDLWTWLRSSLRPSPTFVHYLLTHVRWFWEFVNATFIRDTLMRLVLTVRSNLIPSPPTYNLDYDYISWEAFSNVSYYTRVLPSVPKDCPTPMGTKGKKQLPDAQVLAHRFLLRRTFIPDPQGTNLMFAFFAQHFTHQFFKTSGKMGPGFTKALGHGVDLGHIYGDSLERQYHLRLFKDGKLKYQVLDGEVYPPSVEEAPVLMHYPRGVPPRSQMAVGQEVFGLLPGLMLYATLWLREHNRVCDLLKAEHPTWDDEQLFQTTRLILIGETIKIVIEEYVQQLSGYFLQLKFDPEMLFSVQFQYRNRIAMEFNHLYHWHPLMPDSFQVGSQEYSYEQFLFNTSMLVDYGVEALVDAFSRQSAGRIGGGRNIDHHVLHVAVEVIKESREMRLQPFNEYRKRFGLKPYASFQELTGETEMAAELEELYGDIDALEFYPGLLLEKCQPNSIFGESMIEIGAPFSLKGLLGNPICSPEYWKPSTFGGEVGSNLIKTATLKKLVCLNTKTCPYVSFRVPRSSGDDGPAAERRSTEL
Briefly: Inhibition of COX-1 in rabbit peripheral venous blood assessed as formation of 12-hydroxyheptadecatrienoic acid after 24 hrs by HPLC in presence of calcium ionophore A23187.

Data set [2] has as its system Rattus norvegicus. Briefly: Antiinflammatory activity in Wistar rat assessed as inhibition of carrageenan-induced paw edema at 9.08 mg/kg, po administered 1 hr before carrageenan challenge measured at 6 hrs by plethysmometer. Format: functional.
The target of data set [3] is T2, Prostaglandin G/H synthase 2 (Oryctolagus cuniculus, UniProt O02768).
T2 sequence (O02768 whole entry): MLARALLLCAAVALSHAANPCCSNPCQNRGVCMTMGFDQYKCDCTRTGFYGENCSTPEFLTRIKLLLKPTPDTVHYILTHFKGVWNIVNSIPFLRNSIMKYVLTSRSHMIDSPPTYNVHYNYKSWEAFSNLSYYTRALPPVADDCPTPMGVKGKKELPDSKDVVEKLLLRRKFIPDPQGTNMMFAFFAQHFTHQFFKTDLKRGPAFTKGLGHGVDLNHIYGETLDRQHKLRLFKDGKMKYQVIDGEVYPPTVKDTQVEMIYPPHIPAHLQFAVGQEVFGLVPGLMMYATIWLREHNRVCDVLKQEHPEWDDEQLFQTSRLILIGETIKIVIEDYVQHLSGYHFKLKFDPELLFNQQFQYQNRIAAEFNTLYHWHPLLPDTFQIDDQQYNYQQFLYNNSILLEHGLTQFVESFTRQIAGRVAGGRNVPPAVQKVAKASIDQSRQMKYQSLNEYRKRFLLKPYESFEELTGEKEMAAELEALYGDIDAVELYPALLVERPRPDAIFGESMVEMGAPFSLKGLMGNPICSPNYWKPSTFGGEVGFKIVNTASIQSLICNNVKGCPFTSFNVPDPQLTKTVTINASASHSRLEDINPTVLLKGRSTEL
The data set is described as follows: Inhibition of COX-2 in rabbit peripheral venous blood assessed as formation of 12-hydroxyheptadecatrienoic acid after 24 hrs in by HPLC presence of calcium ionophore […] and lipopolysaccharide. The class given is tissue-based.

The subject of data set [4] is Rattus norvegicus. The data set is described as follows: Antiinflammatory activity in Wistar rat assessed as inhibition of carrageenan-induced paw edema at 9.08 mg/kg, po administered 1 hr before carrageenan challenge measured at 1 hr by plethysmometer. The class given is functional.
Data set [5] is described as follows: Inhibition of 5-LOX in rabbit peripheral venous blood assessed as formation of […] after 30 mins by HPLC. The class given is tissue-based, Oryctolagus cuniculus.
For data set [6], the system named is Rattus norvegicus. The data set is described as follows: Antiinflammatory activity in Wistar rat assessed as inhibition of carrageenan-induced paw edema at 9.08 mg/kg, po administered 1 hr before carrageenan challenge measured at 3 hrs by plethysmometer. The class given is functional.
For data set [7], the system named is Mus musculus. Briefly: Analgesic activity in BALB/c mouse assessed as inhibition of acetic acid-induced writhing response for 15 mins at 18.16 mg/kg, po. The class given is functional. As to conditions: 0.25 h.
The test system of data set [8] is Rattus norvegicus. The data set is described as follows: Ulcerogenic effect in Wistar rat assessed as gastric ulcer area at 9.08 mg/kg, po administered for 7 days by microscopy. Also noted: dose 9.08 mg/kg, route oral. As to conditions: in vivo, 168 h. The class given is toxicity, organism-based, Stomach.
For data set [9], the system named is Rattus norvegicus. The data set is described as follows: Ulcerogenic effect in Wistar rat assessed as gastric ulcer area at 11.48 mg/kg, po administered for 7 days by microscopy. Format: toxicity, organism-based, Stomach. Also noted: dose 11.48 mg/kg, route oral. As to conditions: in vivo, 168 h.
The test system of data set [10] is Rattus norvegicus. The data set is described as follows: Antiinflammatory activity in Wistar rat assessed as inhibition of carrageenan-induced paw edema at 11.48 mg/kg, po administered 1 hr before carrageenan challenge measured at 6 hrs by plethysmometer. Format: functional.
Data set [11] deals with Mus musculus. Briefly: Analgesic activity in BALB/c mouse assessed as inhibition of acetic acid-induced writhing response for 15 mins at 22.96 mg/kg, po. The class given is functional. As to conditions: 0.25 h.
Data set [12] has as its system Rattus norvegicus. The data set is described as follows: Antiinflammatory activity in Wistar rat assessed as inhibition of carrageenan-induced paw edema at 11.48 mg/kg, po administered 1 hr before carrageenan challenge measured at 1 hr by plethysmometer. The class given is functional.
Data set [13] concerns Rattus norvegicus. Briefly: Antiinflammatory activity in Wistar rat assessed as inhibition of carrageenan-induced paw edema at 11.48 mg/kg, po administered 1 hr before carrageenan challenge measured at 3 hrs by plethysmometer. The class given is functional.
Data set [14] deals with Rattus norvegicus. The data set is described as follows: Antiinflammatory activity in Wistar rat assessed as inhibition of carrageenan-induced paw edema at 10.44 mg/kg, po administered 1 hr before carrageenan challenge measured at 6 hrs by plethysmometer. Format: functional.
The subject of data set [15] is Mus musculus. Briefly: Analgesic activity in BALB/c mouse assessed as inhibition of acetic acid-induced writhing response for 15 mins at 20.88 mg/kg, po. Format: functional. The note with it: 0.25 h.
Data set [16] relates to Rattus norvegicus. Briefly: Ulcerogenic effect in Wistar rat assessed as gastric ulcer area at 10.44 mg/kg, po administered for 7 days by microscopy. The class given is toxicity, organism-based, Stomach. Also noted: dose 10.44 mg/kg, route oral. As to conditions: in vivo, 168 h.
Data set [17] relates to Rattus norvegicus. The data set is described as follows: Antiinflammatory activity in Wistar rat assessed as inhibition of carrageenan-induced paw edema at 10.44 mg/kg, po administered 1 hr before carrageenan challenge measured at 1 hr by plethysmometer. Format: functional.
Data set [18] relates to Rattus norvegicus. The data set is described as follows: Antiinflammatory activity in Wistar rat assessed as inhibition of carrageenan-induced paw edema at 10.44 mg/kg, po administered 1 hr before carrageenan challenge measured at 3 hrs by plethysmometer. Format: functional.

Turning to `CS(=O)(=O)c1ccc(/C=C2/C(=O)Nc3ccccc32)cc1`, in the data set filed under Oryctolagus cuniculus, the Ratio IC50 turned out to be 1.69. Further, the IC50 in [1] worked out at 9.32 µM; in data set [3], 5.52 µM; in data set [5], 9.51 µM. Moreover, the inhibition in vivo at 9.08 mg/kg in the data set with Rattus norvegicus [2] was 21.6%; in the data set with Rattus norvegicus [4], 28.6%; in the data set on Rattus norvegicus [6], 38.9%. For the same molecule, in the data set with Mus musculus [7], the inhibition in vivo at 18.16 mg/kg is 54.4%. Also, the Activity with Rattus norvegicus [8] was 0.56 mm2.

On to `CS(=O)(=O)c1ccc(/C=C2/C(=O)Nc3ccc(Br)cc32)cc1`, for which the Ratio IC50 in the data set listed under Oryctolagus cuniculus is 1.1. For the same molecule, the Activity in the data set with Rattus norvegicus [9] turned out to be 0.44 mm2. Further, the figures for the half-maximal inhibitory concentration (IC50) in [1], in data set [3] and in [5] were 0.11 µM, 0.1 µM and 0.56 µM, respectively. Further, the inhibition in vivo at 11.48 mg/kg came out at 29.4% in the data set with Rattus norvegicus [10], 33.3% in the data set on Rattus norvegicus [12] and 47.2% with Rattus norvegicus [13]. The inhibition in vivo at 22.96 mg/kg with Mus musculus [11] came out at 82.8%.

In the case of `CS(=O)(=O)c1ccc(/C=C2/C(=O)Nc3ccc([N+](=O)[O-])cc32)cc1`, the Ratio IC50 in the data set listed under Oryctolagus cuniculus was determined as 0.15. Moreover, the 50% inhibitory concentration (IC50) came to 0.5 µM in data set [1], 3.29 µM in data set [3] and 3.91 µM in data set [5]. Moreover, the inhibition in vivo at 10.44 mg/kg in the data set on Rattus norvegicus [14] is 23.5%; in the data set with Rattus norvegicus [17], 28.6%; in the data set on Rattus norvegicus [18], 33.3%. Besides, the inhibition in vivo at 20.88 mg/kg with Mus musculus [15] amounted to 73.2%. The Activity with Rattus norvegicus [16] is listed as 0.81 mm2.
